Measurements from US20150038438A1, “ANTIBACTERIAL COMPOUNDS AND METHODS FOR USE” (PTC THERAPEUTICS, INC., priority 2011, published 2015).
≈ marks a conversion by molar mass, not a printed value.

Assays:
Test in all cases: Antibacterial activity, microbroth dilution method (MIC)
[1] = test system: control Gram-negative E. coli 25922 strain; type: cell-based, Escherichia coli; settings: Escherichia coli
From the text: (§1) The antibacterial activity from a microbroth dilution method may be presented as the minimum inhibitory concentration (MIC in μg/mL). The MIC value is the lowest concentration of drug which prevents macroscopically visible growth under test conditions.
(§2) Antibacterial activity of test compounds against the super sensitive Gram-negative Escherichia coli (E. coli) BAS849 bacterium, the control Gram-negative E. coli 25922 strain and the Gram-positive Staphylococcus aureus (S. aureus) 29213 bacterium are shown in Table 1.

[2] = test system: Gram-positive Staphylococcus aureus (S. aureus) 29213; type: cell-based; settings: Staphylococcus aureus, Gram-positive S. aureus 29213
From the text: as §1, §2

[3] = test system: super sensitive Gram-negative Escherichia coli (E. coli) BAS849; type: cell-based; settings: Escherichia coli; super sensitive Gram-negative E. coli BAS849; microbroth dilution; read-out: MIC, E. coli BAS849
From the text: as §1, §2

CC1Oc2cc(N3CCC(N(C)C)C3)ccc2-c2[nH]c(=O)c(C(=O)O)cc21.Cl (stereo not drawn) [Cpd 75, 8-(3-(dimethylamino)pyrrolidin-1-yl)-5-methyl-2-oxo-2,5-dihydro-1H-chromeno[4,3-b]pyridine-3-carboxylic acid hydrochloride]
MIC [1]: 12.5 to 150 µg/mL | MIC [2]: 12.5 to 150 µg/mL | MIC [3]: 12.5 to 150 µg/mL

Cl.Cn1c(CNC(C)(C)C)cc2cc3c(cc21)CCCc1c-3[nH]c(=O)c(C(=O)O)c1O [Cpd 27, 10-((tert-butylamino)methyl)-4-hydroxy-9-methyl-2-oxo-1,2,5,6,7,9-hexahydropyrido[3′,2′:6,7]cyclohepta[1,2-f]indole-3-carboxylic acid hydrochloride]
MIC [1]: < 1 µg/mL | MIC [2]: 1 to 3.5 µg/mL | MIC [3]: < 1 µg/mL

CNCc1cc2cc3c(cc2n1C)CCCc1c-3[nH]c(=O)c(C(=O)O)c1O.Cl [Cpd 22, 4-hydroxy-9-methyl-10-((methylamino)methyl)-2-oxo-1,2,5,6,7,9-hexahydropyrido[3′,2′:6,7]cyclohepta[1,2-f]indole-3-carboxylic acid hydrochloride]
MIC [1]: < 1 µg/mL | MIC [2]: 3.5 to 12.5 µg/mL | MIC [3]: < 1 µg/mL

CN(C)C1CCN(c2ccc3c(c2)C(O)CCc2c-3[nH]c(=O)c(C(=O)O)c2O)C1.Cl (stereo not drawn) [Cpd 15, 9-(3-(dimethylamino)pyrrolidin-1-yl)-4,7-dihydroxy-2-oxo-2,5,6,7-tetrahydro-1H-benzo[6,7]cyclohepta[1,2-b]pyridine-3-carboxylic acid hydrochloride]
MIC [1]: 12.5 to 150 µg/mL | MIC [2]: 12.5 to 150 µg/mL | MIC [3]: 12.5 to 150 µg/mL

CN(C)C1CCN(c2ccc3c(c2)OCCc2cc(C(=O)O)c(=O)[nH]c2-3)C1.Cl (stereo not drawn) [Cpd 82, 9-(3-(dimethylamino)pyrrolidin-1-yl)-2-oxo-1,2,5,6-tetrahydrobenzo[2,3]oxepino[4,5-b]pyridine-3-carboxylic acid hydrochloride]
MIC [1]: 12.5 to 150 µg/mL | MIC [2]: 12.5 to 150 µg/mL | MIC [3]: 3.5 to 12.5 µg/mL

CN(C)C(=O)CNCc1cc2cc3c(cc2n1C)CCCc1c-3[nH]c(=O)c(C(=O)O)c1O.Cl [Cpd 163, 10-(((2-(dimethylamino)-2-oxoethyl)amino)methyl)-4-hydroxy-9-methyl-2-oxo-1,2,5,6,7,9-hexahydropyrido[3′,2′:6,7]cyclohepta[1,2-f]indole-3-carboxylic acid hydrochloride]
MIC [1]: 3.5 to 12.5 µg/mL | MIC [2]: 12.5 to 150 µg/mL | MIC [3]: < 1 µg/mL

CCNCc1cc2cc3c(cc2n1C)C(C)CCc1c-3[nH]c(=O)c(C(=O)O)c1O.Cl (stereo not drawn) [Cpd 63, 10-((ethylamino)methyl)-4-hydroxy-7,9-dimethyl-2-oxo-1,2,5,6,7,9-hexahydropyrido[3′,2′:6,7]cyclohepta[1,2-f]indole-3-carboxylic acid hydrochloride]
MIC [1]: 3.5 to 12.5 µg/mL | MIC [2]: 12.5 to 150 µg/mL | MIC [3]: 1 to 3.5 µg/mL

CCn1c2c(c(O)c(C(=O)O)c1=O)CC=Cc1cc3c(ccn3C)cc1-2 [Cpd 132, 1-ethyl-4-hydroxy-9-methyl-2-oxo-1,2,5,9-tetrahydropyrido[3′,2′:6,7]cyclohepta[1,2-f]indole-3-carboxylic acid]
MIC [1]: 12.5 to 150 µg/mL (≈ 35.7 to 428 µM) | MIC [2]: 3.5 to 12.5 µg/mL (≈ 9.99 to 35.7 µM) | MIC [3]: 3.5 to 12.5 µg/mL (≈ 9.99 to 35.7 µM)

CNCCNCc1cc2cc3c(cc2n1C)CCCc1c-3[nH]c(=O)c(C(=O)O)c1O.Cl.Cl [Cpd 143, 4-hydroxy-9-methyl-10-(((2-(methylamino)ethyl)amino)methyl)-2-oxo-1,2,5,6,7,9-hexahydropyrido[3′,2′:6,7]cyclohepta[1,2-f]indole-3-carboxylic acid dihydrochloride]
MIC [1]: 12.5 to 150 µg/mL | MIC [2]: 12.5 to 150 µg/mL | MIC [3]: 3.5 to 12.5 µg/mL

CN1CCN(c2ccc3c(c2)NCCc2c-3[nH]c(=O)c(C(=O)O)c2O)CC1.Cl [Cpd 96, 4-hydroxy-9-(4-methylpiperazin-1-yl)-2-oxo-2,5,6,7-tetrahydro-1H-benzo[b]pyrido[2,3-d]azepine-3-carboxylic acid hydrochloride]
MIC [1]: 12.5 to 150 µg/mL | MIC [2]: 12.5 to 150 µg/mL | MIC [3]: 3.5 to 12.5 µg/mL

CN(C)c1ccc2c(c1)CCCCc1c-2[nH]c(=O)c(C(=O)O)c1O [Cpd 5, 10-(dimethylamino)-4-hydroxy-2-oxo-1,2,5,6,7,8-hexahydrobenzo[7,8]cycloocta[1,2-b]pyridine-3-carboxylic acid]
MIC [1]: 12.5 to 150 µg/mL (≈ 38.1 to 457 µM) | MIC [2]: 3.5 to 12.5 µg/mL (≈ 10.7 to 38.1 µM) | MIC [3]: < 1 µg/mL

O=C(O)c1c(O)c2c([nH]c1=O)-c1ccc(N3CCCC3)cc1OCC2 [Cpd 77, 4-hydroxy-2-oxo-9-(pyrrolidin-1-yl)-1,2,5,6-tetrahydrobenzo[2,3]oxepino[4,5-b]pyridine-3-carboxylic acid]
MIC [1]: 12.5 to 150 µg/mL (≈ 36.5 to 438 µM) | MIC [2]: 3.5 to 12.5 µg/mL (≈ 10.2 to 36.5 µM) | MIC [3]: < 1 µg/mL

CC(C)NCc1cc2cc3c(cc2n1C)CCCc1cc(C(=O)O)c(=O)[nH]c1-3.Cl [Cpd 55, 10-((isopropylamino)methyl)-9-methyl-2-oxo-1,2,5,6,7,9-hexahydropyrido[3′,2′:6,7]cyclohepta[1,2-f]indole-3-carboxylic acid hydrochloride]
MIC [1]: 1 to 3.5 µg/mL | MIC [2]: 12.5 to 150 µg/mL | MIC [3]: < 1 µg/mL

CN(C)Cc1cc2cc3c(cc2n1C)OCCc1c-3[nH]c(=O)c(C(=O)O)c1O.Cl [Cpd 173, 10-((dimethylamino)methyl)-4-hydroxy-9-methyl-2-oxo-2,5,6,9-tetrahydro-1H-pyrido[2′,3′:4,5]oxepino[3,2-f]indole-3-carboxylic acid hydrochloride]
MIC [1]: < 1 µg/mL | MIC [2]: 12.5 to 150 µg/mL | MIC [3]: < 1 µg/mL

Cl.Cn1c(CNCCO)cc2cc3c(cc21)CCCc1c-3[nH]c(=O)c(C(=O)O)c1O [Cpd 147, 4-hydroxy-10-(((2-hydroxyethyl)amino)methyl)-9-methyl-2-oxo-1,2,5,6,7,9-hexahydropyrido[3′,2′:6,7]cyclohepta[1,2-f]indole-3-carboxylic acid hydrochloride]
MIC [1]: 3.5 to 12.5 µg/mL | MIC [2]: 12.5 to 150 µg/mL | MIC [3]: < 1 µg/mL

CNCc1cc2c3c(ccc2n1C)-c1[nH]c(=O)c(C(=O)O)c(O)c1CCC3.Cl [Cpd 60, 7-hydroxy-1-methyl-2-((methylamino)methyl)-9-oxo-1,4,5,6,9,10-hexahydropyrido[2′,3′:3,4]cyclohepta[1,2-e]indole-8-carboxylic acid hydrochloride]
MIC [1]: 12.5 to 150 µg/mL | MIC [2]: 12.5 to 150 µg/mL | MIC [3]: 3.5 to 12.5 µg/mL

Cn1c2c(cc(C(=O)O)c1=O)CCCc1cc3c(ccn3C)cc1-2 [Cpd 133, 1,9-dimethyl-2-oxo-1,2,5,6,7,9-hexahydropyrido[3′,2′:6,7]cyclohepta[1,2-f]indole-3-carboxylic acid]
MIC [1]: 3.5 to 12.5 µg/mL (≈ 10.9 to 38.8 µM) | MIC [2]: 12.5 to 150 µg/mL (≈ 38.8 to 465 µM) | MIC [3]: < 1 µg/mL

Cl.Cn1c(CNC2(C)CC2)cc2cc3c(cc21)OCCc1c-3[nH]c(=O)c(C(=O)O)c1O [Cpd 167, 4-hydroxy-9-methyl-10-(((1-methylcyclopropyl)amino)methyl)-2-oxo-2,5,6,9-tetrahydro-1H-pyrido[2′,3′:4,5]oxepino[3,2-f]indole-3-carboxylic acid hydrochloride]
MIC [1]: < 1 µg/mL | MIC [2]: 1 to 3.5 µg/mL | MIC [3]: < 1 µg/mL

CC1Oc2cc(N3CCCC3)ccc2-c2[nH]c(=O)c(C(=O)O)cc21 (stereo not drawn) [Cpd 74, 5-methyl-2-oxo-8-(pyrrolidin-1-yl)-2,5-dihydro-1H-chromeno[4,3-b]pyridine-3-carboxylic acid]
MIC [1]: 12.5 to 150 µg/mL (≈ 38.3 to 460 µM) | MIC [2]: 12.5 to 150 µg/mL (≈ 38.3 to 460 µM) | MIC [3]: 1 to 3.5 µg/mL (≈ 3.06 to 10.7 µM)

Cl.O=C(O)c1c(O)c2c([nH]c1=O)-c1ccc(N3CCCNCC3)cc1CCC2 [Cpd 111, 9-(1,4-diazepan-1-yl)-4-hydroxy-2-oxo-2,5,6,7-tetrahydro-1H-benzo[6,7]cyclohepta[1,2-b]pyridine-3-carboxylic acid hydrochloride]
MIC [1]: 12.5 to 150 µg/mL | MIC [2]: 12.5 to 150 µg/mL | MIC [3]: 1 to 3.5 µg/mL

Cl.Cn1c(CNCc2ccccc2)cc2cc3c(cc21)CCCc1c-3[nH]c(=O)c(C(=O)O)c1O [Cpd 34, 10-((benzylamino)methyl)-4-hydroxy-9-methyl-2-oxo-1,2,5,6,7,9-hexahydropyrido[3′,2′:6,7]cyclohepta[1,2-f]indole-3-carboxylic acid hydrochloride]
MIC [1]: 1 to 3.5 µg/mL | MIC [2]: 1 to 3.5 µg/mL | MIC [3]: < 1 µg/mL

CC1COc2cc(N3CCCC3)ccc2-c2[nH]c(=O)c(C(=O)O)c(O)c21 (stereo not drawn) [Cpd 83, 4-hydroxy-5-methyl-2-oxo-9-(pyrrolidin-1-yl)-1,2,5,6-tetrahydrobenz[2,3]oxepino[4,5-b]pyridine-3-carboxylic acid]
MIC [1]: 12.5 to 150 µg/mL (≈ 35.1 to 421 µM) | MIC [2]: 3.5 to 12.5 µg/mL (≈ 9.82 to 35.1 µM) | MIC [3]: < 1 µg/mL

CC(C)NCc1cc2cc3c(cc2n1C)C(C)CCc1c-3[nH]c(=O)c(C(=O)O)c1O.Cl (stereo not drawn) [Cpd 64, 4-hydroxy-10-((isopropylamino)methyl)-7,9-dimethyl-2-oxo-1,2,5,6,7,9-hexahydropyrido[3′,2′:6,7]cyclohepta[1,2-f]indole-3-carboxylic acid hydrochloride]
MIC [1]: 3.5 to 12.5 µg/mL | MIC [2]: 12.5 to 150 µg/mL | MIC [3]: 1 to 3.5 µg/mL

CC1CCc2c([nH]c(=O)c(C(=O)O)c2O)-c2cc3cc(CNC(C)(C)C)n(C)c3cc21.Cl (stereo not drawn) [Cpd 65, 10-((tert-butylamino)methyl)-4-hydroxy-7,9-dimethyl-2-oxo-1,2,5,6,7,9-hexahydropyrido[3′,2′:6,7]cyclohepta[1,2-f]indole-3-carboxylic acid hydrochloride]
MIC [1]: 3.5 to 12.5 µg/mL | MIC [2]: 3.5 to 12.5 µg/mL | MIC [3]: 1 to 3.5 µg/mL

Cl.Cn1c(CNCCO)cc2cc3c(cc21)OCCc1c-3[nH]c(=O)c(C(=O)O)c1O [Cpd 177, 4-hydroxy-10-(((2-hydroxyethyl)amino)methyl)-9-methyl-2-oxo-2,5,6,9-tetrahydro-1H-pyrido[2′,3′:4,5]oxepino[3,2-f]indole-3-carboxylic acid hydrochloride]
MIC [1]: 12.5 to 150 µg/mL | MIC [2]: 12.5 to 150 µg/mL | MIC [3]: < 1 µg/mL
